Data reported in US20250090576A1, “METHODS FOR TREATING NONTUBERCULOUS MYCOBACTERIA DISEASES” (Microbion Corporation, priority 2022, published 2025).
≈ marks a conversion by molar mass, not a printed value. Where two headings read alike, the source gives them in different places.

Columns and labels:
Type in all cases: cell-based
[1] = test system: M. avium strain 104 (MAH 104); assay: MIC broth dilution, growth by turbidity/OD 595 nm; details: for Sensitivity phenotype (R/I/S): MAH 104; for MIC: Mycobacterium avium
Experimental: Mycobacteria strains were used to determine MICs of BisEDT and amikacin. Strains included cystic fibrosis patient isolates from National Jewish Hospital. A range of high dose to low dose of antibiotics was used to determine bacteria susceptibility. M. avium strain 104, M. avium strain 3388, and CF patient strain DNA00133 were grown to log phase (7 days) while M. abscessus strain 19977, CF patient strain DNA00703, and CF patient strain DNA01715 achieved log phase (4 days) on 7H10 middlebrook media plates supplemented with 10% OADC (Oleic acid, Albumin, Dextrose, Catalase). […] For BisEDT, two types of compound physical states were tested. First, BisEDT was solubilized in DMSO (furthermore labeled soluble BisEDT). Second, BisEDT was made in suspension to mimic in vivo studies (furthermore labeled insoluble BisEDT). […] Control tubes containing no antibiotics were also included for each antibiotic tested. Inoculums of […] bacteria for each strain was measured with optical density (O.D.) at 595 nm. 10 μl of these inoculums were added to each antibiotic tube and incubated in a shaking incubator at 37° C. and 200 rpm. Slow growing stains were measured for growth after 10 days incubation while fast growing strains were incubated for 5 days. After incubation, 100 μl from each tube was pulled and placed in a 96-well plate for O.D. reading. Turbidity determined sensitive, intermediate, or resistant bacteria.

[2] = test system: M. abscessus cystic fibrosis patient strain 00703 in THP-1 macrophages; assay: Mycobacterial survival (CFU) in infected THP-1 macrophages; details: CF patient strain 00703; after 3 days; drugs at MIC
Experimental: (§1) THP-1 macrophages were differentiated with 50 ng/ml PMA for 24 hours, followed by 24 hours in media prior to infection. Differentiated THP-1 macrophages were either infected with M. avium strains or M. abscessus strains for 1 hour with an multiplicity of infection (MOI) of 5 or uninfected. Cells were washed twice, followed by 1 hour of antibiotic treatment with 200 μg/ml of amikacin to remove extracellular bacteria. After the antibiotic step, cells were washed once more and BisEDT (BIZ) or amikacin was added once to selected wells (see in vitro doses below).
(§2) The treatments included: vehicle, amikacin, Soluble BisEDT (S Biz), Insoluble BisEDT (I Biz), and amikacin+BisEDT. The time points for sample preparation were 72 h for M. abscessus strains and 4- and 7-days post infection for M. avium strains. At the indicated timepoints cell media was removed and replaced with 400 ul of 0.1% triton x-100 in H2O for lysis. Wells were pipetted 25 times to disrupt cells then diluted and plated for CFU enumeration.

[3] = test system: M. abscessus cystic fibrosis patient strain 01715 in THP-1 macrophages; assay: as above; details: CF patient strain 01715; after 3 days; drugs at MIC
Experimental: as §1, §2

[4] = test system: M. abscessus strain 19977 in THP-1 macrophages; assay: as above; details: after 3 days, drugs at MIC
Experimental: as §1, §2

[5] = test system: M. avium strain 104 (MAH 104) in THP-1 macrophages; assay: as above; details: 4-day and 7-day, drugs at MIC
Experimental: as §1, §2

M. abscessus MABS9 = assay: MIC (Table 8); details: Mycobacteroides abscessus
M. abscessus MABS11 = assay: MIC (Table 8); details: Mycobacteroides abscessus
[6] = test system: M. abscessus biofilm (six clinical isolates); assay: MBEC assay, summary over six clinical isolates; details: at high concentrations (amikacin, clarithromycin: apart from MABS4)
Description: In this study the MBEC assay was followed as described in the Innovotech Procedural Manual, version 2.1 with minor modifications to assess the antibiofilm activity of the antimicrobial compounds under investigation. The MBEC value refers to the Minimum Biofilm Eradication Concentration of each antimicrobial for each strain. The MBEC value is defined as the minimum antibiotic concentration where the optical density (OD) value at recovery is less than 10% of the control OD value and there is no growth observed with visual examination of the wells.
Step 1: Inoculation. For resuscitation, all strains were streaked on TSA plates, except for the mycobacteria which were streaked on 7H10 media, from the frozen stocks, and grew overnight at 37° C. (Table 6). From the plate, one colony was picked for inoculation in organism specific medium (OSM) and grown in a shaker incubator at 37° C. at 225 RPM until mid-log phase (OD 0.2-0.8). At mid log phase the culture was diluted in OSM medium (Table 6) to an OD of 0.05. 150 μL of it were aliquoted in each corresponding well in a 96-well MBEC plate (inoculation plate). Subsequently, the MBEC plates were incubated static at 37° C. for the appropriate time for each species (Table 7). During incubation, biofilm formed on the pegs.
Step 2: Challenge. Following incubation, the peg lid with the biofilm was washed twice in PBS and placed on a second 96-well plate with 200 μl of antibiotic dilutions (challenge plate). The challenge plate was then incubated at 37° C. for 18 h to allow exposure of the biofilm to antibiotics.
Step 3: Recovery. […] The recovery of resistant cells was assessed by an end-point measurement of the optical density at 600 nm (OD600) for each well with a plate reader (FIG. 4).
This is possibly, in part, due to the variable clumping of the cells observed in the biofilm biomass on the pegs. The clumping of the cells also impacted the OD readings. […] For replicate experiments with variable results, the final MBEC values were determined based on the higher MBEC concentration observed among the replicates.

For `NCC[C@H](O)C(=O)N[C@@H]1C[C@H](N)[C@@H](O[C@H]2O[C@H](CN)[C@@H](O)[C@H](O)[C@H]2O)[C@H](O)[C@H]1O[C@H]1O[C@H](CO)[C@@H](O)[C@H](N)[C@H]1O` [amikacin], the “Sensitivity phenotype (R/I/S)” value ([1]; 1 μg/mL) was “R”, the “Sensitivity phenotype (R/I/S)” value ([1]; 2 μg/mL) was “R” and the “Sensitivity phenotype (R/I/S)” value ([1]; 4 μg/mL) was “R”. The “Sensitivity phenotype (R/I/S)” value ([1]; 8 μg/mL) was “S”, the “Sensitivity phenotype (R/I/S)” value ([1]; 16 μg/mL) was “S” and the “Sensitivity phenotype (R/I/S)” value ([1]; 32 μg/mL) was “S”. For the same compound, the “Sensitivity phenotype (R/I/S)” value ([1]; 64 μg/mL) was “S”, the “Sensitivity phenotype (R/I/S)” value ([1]; 128 μg/mL) was “S” and the MIC ([1]; M. avium strain 104 (Table 3), read-out: MIC determined for the strain, used for treatment of infected macrophages) was 8 µg/mL (≈ 13.7 µM). For the same compound, the MIC ([1]; M. avium strain 104, read-out: MIC) was 8 µg/mL (≈ 13.7 µM), the “mycobacterial survival (CFU, bacterial load) in THP-1 macrophages, in words” value (shortened to “mycobacterial survival”) [2] was “bacteriostatic” and the “mycobacterial survival” value [3] was “bacteriostatic”. The “mycobacterial survival” value [4] was “somewhat reduced CFU counts from initial infection rates, but the difference was not significant”, the “mycobacterial survival” value [5] was “greatly reduced the bacteria load” and the MIC (M. abscessus MABS9) was 8 µg/mL (≈ 13.7 µM). For the same compound, the MIC (M. abscessus MABS11) was 1 µg/mL (≈ 1.71 µM) and the “biofilm susceptibility, in words” value [6] was “resistance”.
